We go through 18 compounds from patent US7045528B2, “Benzofused heterozryl amide derivatives of thienopyridines useful as therapeutic agents, pharmaceutical compositions including the same, and methods for their use” (Agouron Pharmaceuticals, Inc., priority 2002, dated 2006).

Molecules are shown by their SMILES.

Assay [1] deals with T1, unphosphorylated VEGF-R2Δ50 (FLVK) (Homo sapiens, UniProt P35968, DEL940-989/E990V).
T1 construct: VEGF-R2Δ50 contains residues 806–939 and 990–1171; made in house; host or cells: baculovirus/insect cell system
Kind of assay: VEGF-R2 coupled spectrophotometric assay, unphosphorylated VEGF-R2Δ50 (FLVK). The class given is biochemical. The conditions noted are these: unphosphorylated VEGF-R2Δ50; for inhibition at 0.05 µM: 50 nM compound, read-out: FLVK (% inh @ 50 nM). In outline:
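Baculovirus-expressed human VEGF-R2Δ50 (kinase insert partly deleted, E990V), unphosphorylated form; ADP production coupled via PK/LDH to NADH oxidation, read at 340 nm. 20 mM poly(E4Y1), 3 mM ATP, 60 mM MgCl2, 2 mM MnCl2, 200 mM HEPES pH 7.5; 5–40 nM enzyme. Ki from Morrison tight-binding fit.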

The subject of assay [2] is human umbilical vein endothelial cells (HUVEC). Kind of assay: HUVEC+VEGF proliferation assay. The class given is cell-based. As to conditions: Homo sapiens, HUVEC; VEGF 6 ng/mL, 72 h, MTT. Summed up:
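Exponentially growing passage 3–4 HUVEC were starved 24 h in F12K + 1% FBS, given compound (0.1% final DMSO) 1 h before 6 ng/mL final VEGF, then cultured 72 h. Proliferation was read as MTT dye reduction (4 h exposure), absorbance at 595 nm.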

Assay [3] deals with T2, PDGFRβ (Homo sapiens, UniProt P09619).
T2 construct: expressed in transfected cells; host or cells: porcine aorta endothelial (PAE)-PDGFRβ cells
Kind of assay: PAE-PDGFRβ phosphorylation in PAE-PDGFRB cells assay. As to conditions: PAE cells overexpressing human PDGFRβ, PDGF-BB stimulated; read-out: PAE PDGFR autophos IC50 (nM) AVG. The class given is cell-based. In outline:
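PAE cells overexpressing human PDGFRβ, serum-starved 16 h (0.1% FBS), were given compound for 1 h at 37 °C (0.5% DMSO) and then stimulated with 1 μg/mL PDGF-BB plus 2 mM Na3VO4 for 8 min. Receptor autophosphorylation was read by capture ELISA (HRP-PY20, TMB, 450 nm); IC50 from 4-parameter fit.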

Assay [4] has as its system Huvec. Kind of assay: bFGF Huvec proliferation. The class given is cell-based, human. As to conditions: Homo sapiens, HUVEC.

T2 sequence (P09619 33-1106): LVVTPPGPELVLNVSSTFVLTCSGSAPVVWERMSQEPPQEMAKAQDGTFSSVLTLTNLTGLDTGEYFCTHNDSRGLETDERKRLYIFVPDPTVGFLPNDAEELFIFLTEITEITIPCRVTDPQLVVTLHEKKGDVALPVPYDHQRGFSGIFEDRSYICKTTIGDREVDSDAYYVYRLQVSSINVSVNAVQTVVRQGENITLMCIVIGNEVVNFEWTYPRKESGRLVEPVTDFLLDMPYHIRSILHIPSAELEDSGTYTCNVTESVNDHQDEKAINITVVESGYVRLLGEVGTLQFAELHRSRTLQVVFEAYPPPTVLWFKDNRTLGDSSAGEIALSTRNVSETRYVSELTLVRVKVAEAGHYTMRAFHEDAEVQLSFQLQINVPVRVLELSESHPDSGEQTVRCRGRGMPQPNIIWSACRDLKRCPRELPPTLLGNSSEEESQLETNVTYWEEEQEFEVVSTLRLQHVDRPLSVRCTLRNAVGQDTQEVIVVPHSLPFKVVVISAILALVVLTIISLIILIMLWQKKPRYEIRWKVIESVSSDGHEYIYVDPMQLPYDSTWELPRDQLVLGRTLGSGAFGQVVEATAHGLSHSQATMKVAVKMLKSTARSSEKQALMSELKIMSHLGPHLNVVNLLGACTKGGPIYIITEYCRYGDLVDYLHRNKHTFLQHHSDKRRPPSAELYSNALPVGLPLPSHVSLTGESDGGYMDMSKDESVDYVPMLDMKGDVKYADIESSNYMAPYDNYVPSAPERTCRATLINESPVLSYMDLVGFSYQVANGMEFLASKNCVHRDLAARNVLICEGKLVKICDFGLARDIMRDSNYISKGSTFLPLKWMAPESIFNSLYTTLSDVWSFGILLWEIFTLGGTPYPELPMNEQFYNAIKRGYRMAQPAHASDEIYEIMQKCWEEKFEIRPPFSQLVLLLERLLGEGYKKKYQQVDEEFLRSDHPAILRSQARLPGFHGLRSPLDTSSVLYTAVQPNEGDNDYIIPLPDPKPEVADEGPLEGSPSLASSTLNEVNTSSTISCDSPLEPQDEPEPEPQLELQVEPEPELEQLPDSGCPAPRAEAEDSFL
T1 sequence (P35968 with tags, fused parts or gaps DEL940-989/E990V limits assumed): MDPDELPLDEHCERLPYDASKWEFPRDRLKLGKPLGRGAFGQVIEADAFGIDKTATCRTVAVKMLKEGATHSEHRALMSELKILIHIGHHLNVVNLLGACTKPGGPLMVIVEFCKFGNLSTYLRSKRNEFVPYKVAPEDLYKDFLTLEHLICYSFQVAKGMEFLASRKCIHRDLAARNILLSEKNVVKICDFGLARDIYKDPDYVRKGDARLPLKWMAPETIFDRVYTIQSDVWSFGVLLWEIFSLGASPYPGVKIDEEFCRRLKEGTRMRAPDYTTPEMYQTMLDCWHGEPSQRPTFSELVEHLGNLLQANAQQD

Take `CNC(=O)c1c(Cl)n(C)c2cc(Oc3ccnc4cc(-c5nc(C(C)(C)O)cs5)sc34)ccc12` [Example 75, 2-Chloro-6-{2-[4-(1-hydroxy-1-methyl-ethyl)thiazol-2-yl]-thieno[3,2-b]pyridin-7-yloxy}-1-methyl-1H-indole-3-carboxyllc acid methylamide]: the inhibition at 0.05 µM in assay [1] was 84%. Besides, in assay [1], the affinity, expressed as Ki, was 2.62 nM. Moreover, the concentration for half-maximal inhibition (IC50) stood at 1.4 nM in assay [2], 16.6 nM in assay [3] and 10000 nM in assay [4].

For `CNC(=O)c1c(C)oc2cc(Oc3ccnc4cc(C(=O)N5CCC5)sc34)ccc12` [Example 77, 6[2-(Azetidine-1-carbonyl)-thieno[3,2-b]pyridin-7-yloxy]-2-methyl-benzofuran-3-carboxylic acid methylamide], the inhibition at 0.05 µM in assay [1] turned out to be 99%. In addition, in assay [1], the affinity, expressed as Ki, was 0.2 nM. In addition, the IC50 in assay [2] worked out at 0.2 nM; in assay [3], 7.4 nM; in assay [4], 8 nM.

As to `CNC(=O)c1c(C)oc2cc(Oc3ccnc4cc(C(=O)N5CCC[C@H]5COC)sc34)ccc12` [Example 79, 6-(2-[(S)-2-(methoxymethyl)pyrrolidine-1-carbonyl]thieno[3,2-b]pyridin-7-yloxy)-2-methyl-benzofuran-3-carboxylic acid methyl amide], in assay [1], the inhibition at 0.05 µM was determined as 90%. Also, the inhibition constant (Ki) in assay [1] was 0.276 nM. Moreover, the IC50 in assay [2] amounted to 0.223 nM; in assay [3] it was 15.5 nM; in assay [4], 130 nM.

On to `CNC(=O)c1c(C)oc2cc(Oc3ccnc4cc(C(=O)N5CCC[C@H]5CO)sc34)ccc12` [Example 80, 6-(2-[(S)-2-(hydroxymethyl)pyrrolidine-1-carbonyl]thieno[3,2-b]pyridin-7-yloxy)-2-methyl-benzofuran-3-carboxylic acid methylamide], for which the inhibition at 0.05 µM in assay [1] was found to be 95%. Besides, the affinity in assay [1] corresponds to a Ki of 0.438 nM. The values for the half-maximal inhibitory concentration (IC50) in assay [2], in assay [3] and in assay [4] were 0.239 nM, 31 nM and 60 nM, respectively.

For `CNC(=O)c1c(C)oc2cc(Oc3ccnc4cc(-c5nc(CO)cs5)sc34)ccc12` [Example 81, 6-[2-(4-Hydroxymethyl-thiazol-2-yl)-thieno[3,2-b]pyridin-7-yloxy]-2-methyl-benzofuran-3-carboxylic acid methylamide], in assay [1], the inhibition at 0.05 µM stood at 100%. The Ki in assay [1] was 0.2 nM. Also, the IC50 in assay [2] was determined as 0.09 nM; in assay [3], 7 nM; in assay [4], 26 nM.

On to `COC[C@@H]1CCCN1C(=O)c1cc2nccc(Oc3ccc4c(C(=O)NC(C)C)c(C)oc4c3)c2s1` [Example 82, 6-(2-[(S)-2-(methoxymethyl)pyrrolidine-1-carbonyl]thieno[3,2-b]pyridin-7-yloxy)-2-methyl-benzofuran-3-carboxylic acid isopropylamide], for which, in assay [1], the inhibition at 0.05 µM amounted to 89%. Also, in assay [1], the Ki was determined as 0.884 nM. The IC50 in assay [2] came to 2.28 nM; in assay [3], 53.1 nM; in assay [4], 2060 nM.

For the compound `Cc1oc2cc(Oc3ccnc4cc(-c5nccn5C)sc34)ccc2c1C(=O)NC(C)C` [Example 83, 2-Methyl-6-[2-(1-methyl-1H-imidazol-2-yl)-thieno[3,2-b]pyridin-7-yloxy]-benzofuran-3-carboxylic acid isopropyl amide], the inhibition at 0.05 µM in assay [1] was 98%. The compound also came in with a Ki in assay [1] of 0.2 nM. The concentration for half-maximal inhibition (IC50) in assay [2] was 0.77 nM; in assay [3], 28.8 nM; in assay [4] it was 142 nM.

Turning to `Cc1oc2cc(Oc3ccnc4cc(-c5nccn5C)sc34)ccc2c1C(=O)NCC(C)C` [Example 84, 2-Methyl-6-[2-(1-methyl-1H-imidazol-2-yl)-thieno[3,2-b]pyridin-7-yloxy]-benzofuran-3-carboxylic acid isobutyl amide], the inhibition at 0.05 µM in assay [1] was found to be 94%. In addition, in assay [1], affinity was put at a Ki of 0.58 nM. Further, the figures for the 50% inhibitory concentration (IC50) in assay [2], in assay [3] and in assay [4] were 0.322 nM, 12.4 nM and 429 nM, respectively.

As to `CO[C@@H]1CCN(C(=O)c2cc3nccc(Oc4ccc5c(C(=O)NCC(C)C)c(C)oc5c4)c3s2)C1` [Example 87, 6-[2-(3-Methoxy-pyrrolidine-1-carbonyl)-thieno[3,2-b]pyridin-7-yloxy]-2-methyl-benzofuran-3-carboxylic acid isobutyl amide], in assay [1], the inhibition at 0.05 µM is 96%. The Ki in assay [1] was 0.615 nM. In addition, the IC50 in assay [2] was 1.25 nM; in assay [3] it was 17.8 nM; in assay [4] it was 6040 nM.

For the compound `Cc1oc2cc(Oc3ccnc4cc(C(=O)N5CC[C@@H](O)C5)sc34)ccc2c1C(=O)NCC(C)C` [Example 88, 2-Methyl-6[2-(3-hydroxy-pyrrolidine-1-carbonyl)-thieno[3,2-b]pyridin-7-yloxy]-benzofuran-3-carboxylic acid isobutyl amide], in assay [1], the inhibition at 0.05 µM came out at 94%. Moreover, the inhibition constant Ki in assay [1] turned out to be 0.574 nM. The values for the concentration for half-maximal inhibition (IC50) in assay [2], in assay [3] and in assay [4] were 0.46 nM, 15.1 nM and 363 nM, respectively.

With `CO[C@@H]1CCN(C(=O)c2cc3nccc(Oc4ccc5c(C(=O)NCCN6CCOCC6)c(C)oc5c4)c3s2)C1` [Example 90, 6-[2-(3-Methoxy-pyrrolidine-1-carbonyl)-thieno[3,2-b]pyridin-7-yloxy]-2-methyl-benzofuran-3-carboxylic acid (2-morpholin-4-yl-ethyl)-amide], the inhibition at 0.05 µM in assay [1] turned out to be 93%. In assay [1], this compound displayed an inhibition constant Ki of 0.739 nM. Moreover, the figures for the half-maximal inhibitory concentration (IC50) in assay [2], in assay [3] and in assay [4] were 2.14 nM, 33 nM and 745 nM, respectively.

Regarding `CO[C@@H]1CCN(C(=O)c2cc3nccc(Oc4ccc5c(C(=O)NCC6CC6)c(C)oc5c4)c3s2)C1` [Example 91, 6-[2-(q-Methoxy-pyrrolidine-1-carbonyl)-thieno[3,2-b]pyridin-7-yloxy]-2-methyl-benzofuran-3-carboxylic acid cyclopropylmethyl-amide], in assay [1], the inhibition at 0.05 µM was 94%. Further, affinity in assay [1] was put at a Ki of 0.356 nM. Moreover, the concentration for half-maximal inhibition (IC50) in assay [2] came to 0.168 nM; in assay [3] it was 16.5 nM; in assay [4] it was 250 nM.

As for `CCCNC(=O)c1c(C)oc2cc(Oc3ccnc4cc(C(=O)N5CC[C@@H](OC)C5)sc34)ccc12` [Example 92, 6-[2-(3-Methoxy-pyrrolidine-1-carbonyl)-thieno[3,2-b]pyridin-7-yloxy]-2-methyl-benzofuran-3-carboxylic acid propyl amide], the inhibition at 0.05 µM in assay [1] stood at 100%. Moreover, the affinity in assay [1], expressed as Ki, was 0.2 nM. The values for the IC50 in assay [2], in assay [3] and in assay [4] were 0.18 nM, 4.4 nM and 13 nM, respectively.

For the compound `CCc1oc2cc(Oc3ccnc4cc(-c5nccn5C)sc34)ccc2c1C(=O)NC` [Example 94, 2-Ethyl-6[2-(1-methyl-1H-imidazol-2-yl)-thieno[3,2-b]pyridin-7-yloxy]-benzofuran-3-carboxylic acid methylamide], in assay [1], the inhibition at 0.05 µM came out at 81%. For the same compound, the Ki in assay [1] worked out at 1.45 nM. Also, the figures for the IC50 in assay [2], in assay [3] and in assay [4] were 0.7 nM, 112 nM and 251 nM, respectively.

For the compound `CCc1oc2cc(Oc3ccnc4cc(C(=O)N5CC[C@@H](O)C5)sc34)ccc2c1C(=O)NC` [Example 95, 2-Ethyl-6-[2-(3-hydroxy-pyrrolidine-1-carbonyl)-thieno[3,2-b]pyridin-7-yloxy]-benzofuran-3-carboxylic acid methylamide], the inhibition at 0.05 µM in assay [1] was found to be 89%. In assay [1], this compound showed a Ki of 0.848 nM. Further, the IC50 in assay [2] was found to be 10 nM; in assay [3], 235 nM; in assay [4] it was 96 nM.

Regarding `CCc1oc2cc(Oc3ccnc4cc(C(=O)N5CCC[C@H]5CO)sc34)ccc2c1C(=O)NC` [Example 97, 2-ethyl-6(2-[(S)-2-(hydroxymethyl)pyrrolidine-1-carbonyl]thieno[3,2-b]pyridin-7-yloxy)-benzofuran-3-carboxylic acid methylamide], the inhibition at 0.05 µM in assay [1] came out at 70%. Moreover, in assay [1], the inhibition constant Ki is 4.84 nM. Besides, the figures for the IC50 in assay [2], in assay [3] and in assay [4] were 10 nM, 293 nM and 223 nM, respectively.

With `Cc1oc2cc(Oc3ccnc4ccsc34)ccc2c1C(=O)Nc1ccc(N2CCOCC2)nc1` [Example 102, 2-Methyl-6-(thieno[3,2-b]pyridin-7-yloxy)benzofuran-3-carboxylic acid (6-morpholin-4-yl-pyridin-3-yl)amide], the inhibition at 0.05 µM in assay [1] was determined as 96%. Affinity in assay [1] was put at a Ki of 0.91 nM. Besides, the values for the half-maximal inhibitory concentration (IC50) in assay [2], in assay [3] and in assay [4] were 0.186 nM, 49 nM and 1720 nM, respectively.

`Cc1oc2cc(Oc3ccnc4ccsc34)ccc2c1C(=O)NCCc1c[nH]c2cc(F)ccc12` [Example 104, 2-Methyl-6-(thieno[3,2-b]pyridin-7-yloxy)-benzofuran-3-carboxylic acid [2-(6-fluoro-1H-indol-3-yl)ethyl]-amide]: the inhibition at 0.05 µM in assay [1] worked out at 100%. The IC50 worked out at 8.4 nM in assay [2], 164 nM in assay [3] and 227 nM in assay [4].

By Ki is commonly meant a dissociation constant, usually derived from enzyme kinetics or from competition with a known ligand. High values mean a looser hold on the target, low ones a stronger hold on the target. For orientation: IC50 means the concentration that gives 50% inhibition.
